Here are results for 19 molecules from PubChem BioAssay AID248 (DTP/NCI, 2004).

In the experiment the test system is L1210 leukemia ip in BDF1 mice, survival T/C. Description: NCI In Vivo Anticancer Drug Screen. Data for tumor model L1210 Leukemia (intraperitoneal) in B6D2F1 (BDF1) mice. As to conditions: endpoint: mean survival time, higher = longer survival. The gist of the method: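 Ratio derived from survival: compound-dosed mice over vehicle-dosed mice, all bearing a transplantable tumor.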

The mark [1] stands for this setting: dose: 25.0 mg/kg/injection, schedule: Q01DX009 (ip), vehicle: saline.
The mark [2] stands for this setting: dose: 25.0 mg/kg/injection, schedule: Q04DX003 (ip), vehicle: saline.
Setting [3] is: dose: 100.0 mg/kg/injection, schedule: Q01DX001 (ip), vehicle: saline.
[4] abbreviates: dose: 200.0 mg/kg/injection, schedule: Q01DX001 (ip), vehicle: saline.
The mark [5] stands for this setting: dose: 400.0 mg/kg/injection, schedule: Q01DX001 (ip), vehicle: saline.
Setting [6] is: dose: 100.0 mg/kg/injection, schedule: Q01DX009 (ip), vehicle: saline with Tween-80.
[7] abbreviates: dose: 200.0 mg/kg/injection, schedule: Q01DX009 (ip), vehicle: saline with Tween-80.
[8] abbreviates: dose: 100.0 mg/kg/injection, schedule: Q01DX009 (ip), vehicle: Klucel (hydroxypropylcellulose) (HPC).
The mark [9] stands for this setting: dose: 100.0 mg/kg/injection, schedule: Q04DX003 (ip), vehicle: Klucel (hydroxypropylcellulose) (HPC).
[10] abbreviates: dose: 200.0 mg/kg/injection, schedule: Q04DX003 (ip), vehicle: Klucel (hydroxypropylcellulose) (HPC).
Where [11] appears, read: dose: 400.0 mg/kg/injection, schedule: Q04DX003 (ip), vehicle: Klucel (hydroxypropylcellulose) (HPC).
Where [12] appears, read: dose: 200.0 mg/kg/injection, schedule: Q01DX009 (ip), vehicle: Klucel (hydroxypropylcellulose) (HPC).
Setting [13] is: dose: 400.0 mg/kg/injection, schedule: Q01DX009 (ip), vehicle: Klucel (hydroxypropylcellulose) (HPC).

The structures appear in SMILES notation. “And” between values parts separate entries of the source, which are not always exact repeats. Equal entries are not always repeated. Inconclusive results and toxic doses are left out.

Regarding `Cn1cnc([N+](=O)[O-])c1Sc1nc(N)nc2c1ncn2C1CC(O)C(CO)O1` (stereo unspecified), the T/C is, setting by setting: (dose: 6.25 mg/kg/injection, schedule: Q01DX005 (ip), vehicle: saline) 155 % of control; (dose: 12.5 mg/kg/injection, schedule: Q01DX005 (ip), vehicle: saline) 173 % of control; (dose: 25.0 mg/kg/injection, schedule: Q01DX005 (ip), vehicle: saline) 150 % of control; (dose: 100.0 mg/kg/injection, schedule: Q01DX005 (ip), vehicle: saline) 94 % of control; (dose: 200.0 mg/kg/injection, schedule: Q01DX005 (ip), vehicle: saline) 107 % of control; (dose: 240.0 mg/kg/injection, schedule: Q01DX005 (ip), vehicle: saline) 122 % of control. For the same molecule, the T/C (dose: 600.0 mg/kg/injection, schedule: Q01DX005 (ip), vehicle: saline) was 115 % of control.

As to `CCCC[As](=O)(O)C(C)C`, the T/C runs as follows: (dose: 1.56 mg/kg/injection, schedule: Q01DX009 (ip), vehicle: saline) 100 % of control; (dose: 3.12 mg/kg/injection, schedule: Q01DX009 (ip), vehicle: saline) 100 % of control; (dose: 3.12 mg/kg/injection, schedule: Q04DX003 (ip), vehicle: saline) 112 % of control; (dose: 6.25 mg/kg/injection, schedule: Q04DX002 (ip), vehicle: saline) 120 % of control; (dose: 6.25 mg/kg/injection, schedule: Q04DX003 (ip), vehicle: saline) 107 % of control; (dose: 12.5 mg/kg/injection, schedule: Q01DX001 (ip), vehicle: saline) 112 % of control. For the same molecule, the T/C is 110 % of control (dose: 12.5 mg/kg/injection, schedule: Q04DX002 (ip), vehicle: saline); 118 % of control (dose: 12.5 mg/kg/injection, schedule: Q04DX003 (ip), vehicle: saline); 117 % of control (dose: 25.0 mg/kg/injection, schedule: Q01DX001 (ip), vehicle: saline); 106 % of control and 111 % of control under setting [1]; 105 % of control under setting [2]; 103 % of control (dose: 50.0 mg/kg/injection, schedule: Q01DX001 (ip), vehicle: saline). Also, for the setting “dose: 50.0 mg/kg/injection, schedule: Q04DX002 (ip), vehicle: saline”, the T/C is 117 % of control.

Turning to `CC(C)N(C)N=Nc1n[nH]nc1C(N)=O`, the T/C (dose: 200.0 mg/kg/injection, schedule: Q01DX Z (ip), vehicle: carboxymethylcellulose (CMC)) was 104 % of control.

With `COC(=O)c1c2c(c3c(c1C(=O)OC)CCC3)CCC2`, the T/C was 98 % of control under setting [3], 95 % of control under setting [4] and 92 % of control under setting [5].

Regarding `NS(=O)(=O)c1ccc(N=Cc2ccccc2)cc1`, the T/C is 89 % of control under setting [6]; 92 % of control under setting [7]; 94 % of control (dose: 400.0 mg/kg/injection, schedule: Q01DX009 (ip), vehicle: saline with Tween-80).

Consider `Cc1c(N2CCCCC2)[nH]c2ccccc12`, for which the T/C under setting [8] is 87 % of control, the T/C under setting [9] is 96 % of control, the T/C under setting [10] was 95 % of control and the T/C under setting [11] is 88 % of control.

On to `O=S(=O)(OCC1CO1)c1ccc(Cl)cc1` (stereo unspecified), for which the T/C by setting is: (dose: 100.0 mg/kg/injection, schedule: Q01DX008 (ip), vehicle: Klucel (hydroxypropylcellulose) (HPC)) 101 % of control; (dose: 200.0 mg/kg/injection, schedule: Q01DX008 (ip), vehicle: Klucel (hydroxypropylcellulose) (HPC)) 108 % of control; (dose: 400.0 mg/kg/injection, schedule: Q01DX008 (ip), vehicle: Klucel (hydroxypropylcellulose) (HPC)) 108 % of control.

With `CCOC(=O)C1(C)CCN(C)C1=O` (stereo unspecified), the T/C runs as follows: under setting [3], 96 % of control; under setting [4], 96 % of control; under setting [5], 96 % of control.

Take `Cc1c(NC(=O)Nc2cccc(Cl)c2)nc(Br)c2ccccc12`: the T/C by setting is: (dose: 100.0 mg/kg/injection, schedule: Q04DX002 (ip), vehicle: saline with Tween-80) 101 % of control; (dose: 200.0 mg/kg/injection, schedule: Q04DX002 (ip), vehicle: saline with Tween-80) 96 % of control.

With `CC(=O)OC1CC2(Cl)CC1(Cl)C(Cl)=C2Cl` (stereo unspecified), the T/C reads like this: (dose: 50.0 mg/kg/injection, schedule: Q04DX003 (ip), vehicle: saline with Tween-80) 105 % of control; (dose: 100.0 mg/kg/injection, schedule: Q01DX001 (ip), vehicle: other) 109 % of control; (dose: 100.0 mg/kg/injection, schedule: Q04DX003 (ip), vehicle: saline with Tween-80) 106 % of control; (dose: 200.0 mg/kg/injection, schedule: Q01DX001 (ip), vehicle: other) 100 % of control; (dose: 400.0 mg/kg/injection, schedule: Q01DX001 (ip), vehicle: other) 109 % of control; (dose: 400.0 mg/kg/injection, schedule: Q04DX003 (ip), vehicle: saline with Tween-80) 103 % of control.

As for `CC(=O)Nc1ccc(/C(C#N)=C/c2ccc(N(C)CCC#N)cc2)cc1`, the T/C was 98 % of control under setting [8], 100 % of control under setting [12] and 96 % of control under setting [13].

On to `Cc1cccc(C(C)(C)C#N)c1`, for which the T/C was 92 % of control (dose: 50.0 mg/kg/injection, schedule: Q01DX009 (ip), vehicle: saline with Tween-80); 101 % of control under setting [6]; 90 % of control under setting [7].

In the case of `Cc1cc2cccc(CN)c2cc1C`, the T/C (dose: 100.0 mg/kg/injection, schedule: Q01DX001 (ip), vehicle: Klucel (hydroxypropylcellulose) (HPC)) is 93 % of control.

As for `OC1c2cc(Cl)ccc2-c2c(N=Cc3ccc4c(c3)OCO4)cc(Cl)cc21` (stereo unspecified), the T/C is 90 % of control (dose: 100.0 mg/kg/injection, schedule: Q01DX001 (ip), vehicle: carboxymethylcellulose (CMC)); 90 % of control (dose: 200.0 mg/kg/injection, schedule: Q01DX001 (ip), vehicle: carboxymethylcellulose (CMC)); 93 % of control (dose: 400.0 mg/kg/injection, schedule: Q01DX001 (ip), vehicle: carboxymethylcellulose (CMC)).

Consider `CN(C)Cc1c[nH]c2nccnc12`, for which the T/C is 102 % of control under setting [1]; 100 % of control under setting [2]; 100 % of control (dose: 50.0 mg/kg/injection, schedule: Q01DX009 (ip), vehicle: saline); 105 % of control (dose: 50.0 mg/kg/injection, schedule: Q04DX003 (ip), vehicle: saline); 99 % of control and 102 % of control (dose: 100.0 mg/kg/injection, schedule: Q01DX009 (ip), vehicle: saline); 100 % of control and 104 % of control (dose: 100.0 mg/kg/injection, schedule: Q04DX003 (ip), vehicle: saline). Besides, the T/C (dose: 200.0 mg/kg/injection, schedule: Q01DX009 (ip), vehicle: saline) was 99 % of control.

As for `Cc1cn(C2CCCO2)c(=O)[nH]c1=O` (stereo unspecified), the T/C runs as follows: under setting [3], 106 % of control; under setting [4], 101 % of control; under setting [5], 95 % of control.

For the molecule `C=CCNC(=S)Nc1cccc(C(F)(F)F)c1`, the T/C reads like this: (dose: 50.0 mg/kg/injection, schedule: Q01DX001 (sc), vehicle: carboxymethylcellulose (CMC)) 104 % of control; (dose: 100.0 mg/kg/injection, schedule: Q01DX001 (sc), vehicle: carboxymethylcellulose (CMC)) 101 % of control; (dose: 200.0 mg/kg/injection, schedule: Q01DX001 (sc), vehicle: carboxymethylcellulose (CMC)) 104 % of control; (dose: 400.0 mg/kg/injection, schedule: Q01DX001 (sc), vehicle: carboxymethylcellulose (CMC)) 114 % of control.

Turning to `C[Si](C)(C)c1cc(F)c(F)c(F)c1F`, the T/C is 100 % of control under setting [8]; 97 % of control under setting [9]; 102 % of control under setting [12]; 102 % of control under setting [10]; 98 % of control under setting [13]; 103 % of control under setting [11].

With `Cc1cccc(NC(=O)Oc2ccc(-c3ccccc3)cc2)c1`, the T/C is 98 % of control under setting [8]; 95 % of control (dose: 100.0 mg/kg/injection, schedule: Q04DX002 (ip), vehicle: Klucel (hydroxypropylcellulose) (HPC)); 97 % of control under setting [12]; 88 % of control (dose: 200.0 mg/kg/injection, schedule: Q04DX002 (ip), vehicle: Klucel (hydroxypropylcellulose) (HPC)); 97 % of control under setting [13]; 88 % of control (dose: 400.0 mg/kg/injection, schedule: Q04DX002 (ip), vehicle: Klucel (hydroxypropylcellulose) (HPC)).
